Results as given in paper PMC10574761, “Novel 1,2,3-Triazole-Containing Quinoline–Benzimidazole Hybrids: Synthesis, Antiproliferative Activity, In Silico ADME Predictions, and Docking” (Molecules, 2023).

What was measured:
Hut78 (T-cell lymphoma) = experiment: MTT proliferation assay, HuT78; type: cell-based, human; details: Homo sapiens, HuT78; 72 h treatment, MTT
Protocol: (§1) The effect of the new synthesized compounds was tested on five human tumor cell lines, HeLa (human cervical adenocarcinoma; from ATCC), CaCo-2 (human colorectal adenocarcinoma), HL-60 (acute promyelocytic leukemia), HuT78 (T-cell lymphoma) and THP-1 (acute monocytic leukemia), and on one non-tumor cell line, MRC-5 (human fetal lung fibroblasts). The MRC-5 cells were used between 24 and 26 passages. The cells were cultured in two different types of media: DMEM (Gibco, EU) and RPMI 1640 (Gibco, EU). Both media were supplemented with 2 mM glutamine, fetal bovine serum (10%; heat inactivated) and antibiotics (100 U penicillin and 0.1 mg streptomycin). RPMI 1640 was additionally supplemented with 10 mM HEPES and 1 mM sodium pyruvate. The cells growing in a monolayer were cultured in DMEM, while the cells growing in suspension were cultured in RPMI 1640. The cells were grown in humidified atmosphere under the conditions of 37 °C/5% CO2 gas in the CO2 incubator (IGO 150 CELLlife^TM, JOUAN, Thermo Fisher Scientific, Waltham, MA, USA).
(§2) Growth-inhibitory activity was assessed using a slightly modified procedure based on the National Cancer Institute’s protocol. Briefly, the cells were seeded in 96-well microtiter plates and incubated for 24 h. They were then treated with 10^−7 to 10^−4 M concentrations of the tested compounds for an additional 72 h. After the treatment period, the effects of the tested compounds on the growth rate of the cells were examined using the MTT assay. Absorbance was measured at 595 nm using a microplate reader. […] The selectivity index was calculated according to the following formula: SI=IC50 value of normal cell line/IC50 value of cancer cell line
(§3) The effect of each concentration was analyzed by plotting the logarithm of the concentration of the evaluated compound against the corresponding percentage inhibition value using least squares.

[1] = system: MRC-5 (human fetal lung fibroblasts, non-tumor); experiment: MTT proliferation assay, MRC-5; type: cell-based; details: MRC5, 72 h treatment
Protocol: as §1, §2, §3

[2] = system: THP-1 (acute monocytic leukemia); experiment: MTT proliferation assay, THP-1; type: cell-based, human; details: Homo sapiens, THP-1; 72 h treatment, MTT
Protocol: as §1, §2, §3

[3] = system: HL-60 (acute promyelocytic leukemia); experiment: MTT proliferation assay, HL-60; type: cell-based; details: Homo sapiens, 72 h treatment
Protocol: as §1, §2, §3

[4] = system: HeLa (human cervical adenocarcinoma); experiment: MTT proliferation assay, HeLa; type: cell-based; details: 72 h treatment
Protocol: as §1, §2, §3

[5] = system: CaCo-2 (human colorectal adenocarcinoma); experiment: MTT proliferation assay, CaCo-2; type: cell-based; details: 72 h treatment
Protocol: as §1, §2, §3

Row | Structure (SMILES) | IC50 (Hut78 (T-cell lymphoma)) [µM] | IC50 [2] [µM] | IC50 [3] [µM] | IC50 [4] [µM] | IC50 [5] [µM] | melting point [°C] | IC50 [1] [µM]
1 | O=c1[nH]cc(F)c(=O)[nH]1 [Compound 5-FU, 5-fluorouracil, reference compound] | > 100 | 76.4 | > 100 |  |  |  | 54.1
2 | Clc1ccc2[nH]c(-c3ccc(OCc4cn(-c5ccnc6cc(Cl)ccc56)nn4)cc3)nc2c1 [Compound 9b, 7-chloro-4-(4-{[4-(5-chloro-1H-benzo[d]imidazol-2-yl)phenoxy]methyl}-1H-1,2,3-triazol-1-yl)quinoline] | 92.9 ± 4.3 | > 100 | > 100 | 94.1 | > 100 | 168 to 170 | 100
3 | CCCNC(=N)c1ccc2[nH]c(-c3ccc(OCc4cn(-c5ccnc6cc(Cl)ccc56)nn4)cc3)nc2c1.Cl.Cl.Cl [Compound 9e, 2-(4-{[1-(7-chloroquinolin-4-yl)-1H-1,2,3-triazol-4-yl]methoxy}phenyl)-N-propyl-1H-benzo[d]imidazol-5-carboximidamide trihydrochloride] | 10.2 | > 100 | 98.3 | > 100 | > 100 | 228 to 230 | > 100
4 | Clc1ccc2c(-n3cc(COc4ccc(-c5nc6ccccc6[nH]5)cc4Br)nn3)ccnc2c1 [Compound 10a, 4-(4-{[4-(1H-benzo[d]imidazol-2-yl)-2-bromophenoxy]methyl}-1H-1,2,3-triazol-1-yl)-7-chloroquinoline] | 5.88 | 9.6 | 76.1 | 10 | 63.8 | 252 to 254 | 52.1
5 | Clc1ccc2[nH]c(-c3ccc(OCc4cn(-c5ccnc6cc(Cl)ccc56)nn4)c(Br)c3)nc2c1 [Compound 10b, 4-(4-{[2-bromo-4-(5-chloro-1H-benzo[d]imidazol-2-yl)phenoxy]methyl}-1H-1,2,3-triazol-1-yl)-7-chloroquinoline] | 6.43 | 10.6 | 55.2 | 8.11 | 10.9 |  | > 100
6 | Clc1ccc2[nH]c(-c3ccc(OCc4cn(CCNc5ccnc6cc(Cl)ccc56)nn4)cc3)nc2c1 [Compound 14b, 7-chloro-N-[2-(4-{[4-(5-chloro-1H-benzo[d]imidazol-2-yl)phenoxy]methyl}-1H-1,2,3-triazol-1-yl)ethyl]quinolin-4-amine] | > 100 | > 100 | > 100 | > 100 | > 100 | 213 to 215 | > 100
7 | COc1ccc2[nH]c(-c3ccc(OCc4cn(CCNc5ccnc6cc(Cl)ccc56)nn4)cc3)nc2c1 [Compound 14c, 7-chloro-N-[2-(4-{[4-(5-methoxy-1H-benzo[d]imidazol-2-yl)phenoxy]methyl}-1H-1,2,3-triazol-1-yl)ethyl]quinolin-4-amine] | > 100 | 7.31 | > 100 | > 100 | > 100 | 150 to 152 | > 100
8 | Cl.Cl.Cl.N=C(N)c1ccc2[nH]c(-c3ccc(OCc4cn(CCNc5ccnc6cc(Cl)ccc56)nn4)c(Br)c3)nc2c1 [Compound 15d, 2-{3-bromo-4-[(1-{2-[(7-chloroquinolin-4-yl)amino]ethyl}-1H-1,2,3-triazol-4-yl)methoxy]phenyl}-1H-benzo[d]imidazol-5-carboximidamide trihydrochloride] | > 100 | > 100 | > 100 | > 100 | > 100 | 215 to 217 | > 100

Further lines, with some results ahead:

Row | IC50 (Hut78 (T-cell lymphoma)) [µM] | IC50 [2] [µM] | IC50 [3] [µM] | IC50 [4] [µM] | IC50 [5] [µM] | melting point [°C] | Structure (SMILES) | IC50 [1] [µM]
9 | 100 | > 100 | > 100 | > 100 | > 100 | 143 to 145 | Clc1ccc2c(-n3cc(COc4ccc(-c5nc6ccccc6[nH]5)cc4)nn3)ccnc2c1 [Compound 9a, 4-(4-{[4-(1H-benzo[d]imidazol-2-yl)phenoxy]methyl}-1H-1,2,3-triazol-1-yl)-7-chloroquinoline] | > 100
10 | 2.52 | > 100 | > 100 | > 100 | > 100 | 240 to 242 | Cl.Cl.Cl.N=C(N)c1ccc2[nH]c(-c3ccc(OCc4cn(-c5ccnc6cc(Cl)ccc56)nn4)cc3)nc2c1 [Compound 9d, 2-(4-{[1-(7-chloroquinolin-4-yl)-1H-1,2,3-triazol-4-yl]methoxy}phenyl)-1H-benzo[d]imidazol-5-carboximidamide trihydrochloride] | > 100
11 | 3.89 | 6.23 | 18.2 | 9.86 | 9.92 | 170 to 172 | COc1ccc2[nH]c(-c3ccc(OCc4cn(-c5ccnc6cc(Cl)ccc56)nn4)c(Br)c3)nc2c1 [Compound 10c, 4-(4-{[2-bromo-4-(5-methoxy-1H-benzo[d]imidazol-2-yl)phenoxy]methyl}-1H-1,2,3-triazol-1-yl)-7-chloroquinoline] | 8.54
12 | > 100 | > 100 | > 100 | > 100 | > 100 | 200 to 202 | Cl.Cl.Cl.N=C(N)c1ccc2[nH]c(-c3ccc(OCc4cn(-c5ccnc6cc(Cl)ccc56)nn4)c(Br)c3)nc2c1 [Compound 10d, 2-(3-bromo-4-{[1-(7-chloroquinolin-4-yl)-1H-1,2,3-triazol-4-yl]methoxy}phenyl)-1H-benzo[d]imidazol-5-carboximidamide trihydrochloride] | > 100
13 | > 100 | > 100 | > 100 | > 100 | > 100 | 221 to 223 | Clc1ccc2c(NCCn3cc(COc4ccc(-c5nc6ccccc6[nH]5)cc4)nn3)ccnc2c1 [Compound 14a, N-[2-(4-{[4-(1H-benzo[d]midazole-2-yl)phenoxy]methyl}-1H-1,2,3-triazol-1-yl)ethyl]-7-chloroquinolin-4-amine] | > 100
14 | 10.5 | > 100 | > 100 | > 100 | > 100 | 227 to 229 | Cl.Cl.Cl.N=C(N)c1ccc2[nH]c(-c3ccc(OCc4cn(CCNc5ccnc6cc(Cl)ccc56)nn4)cc3)nc2c1 [Compound 14d, 2-{4-[(1-{2-[(7-chloroquinolin-4-yl)amino]ethyl}-1H-1,2,3-triazol-4-yl)methoxy]phenyl}-1H-benzo[d]imidazol-5-carboximidamide trihydrochloride] | > 100
15 | 7.88 | 4.66 | 11.6 | > 100 | > 100 | 155 to 157 | Clc1ccc2c(NCCn3cc(COc4ccc(-c5nc6ccccc6[nH]5)cc4Br)nn3)ccnc2c1 [Compound 15a, N-[2-(4-{[4-(1H-benzo[d]imidazol-2-yl)-2-bromophenoxy]methyl}-1H-1,2,3-triazol-1-yl)ethyl]-7-chloroquinolin-4-amine] | > 100
16 | 4.91 | 2.06 | 1.24 | > 100 | > 100 | 100 to 102 | Clc1ccc2[nH]c(-c3ccc(OCc4cn(CCNc5ccnc6cc(Cl)ccc56)nn4)c(Br)c3)nc2c1 [Compound 15b, N-[2-(4-{[2-bromo-4-(5-chloro-1H-benzo[d]imidazol-2-yl)phenoxy]methyl}-1H-1,2,3-triazol-1-yl)ethyl]-7-chloroquinolin-4-amine] | > 100
17 | 3.98 | 1.65 | 2.62 | > 100 | > 100 | 92 to 94 | COc1ccc2[nH]c(-c3ccc(OCc4cn(CCNc5ccnc6cc(Cl)ccc56)nn4)c(Br)c3)nc2c1 [Compound 15c, N-[2-(4-{[2-bromo-4-(5-methoxy-1H-benzo[d]imidazol-2-yl)phenoxy]methyl}-1H-1,2,3-triazol-1-yl)ethyl]-7-chloroquinolin-4-amine] | > 100
